Type in all cases: biochemical
The target in assay [1] is T1, circulating FAPα from human plasma (Homo sapiens, UniProt Q12884).
T1 construct: from tissue; host or cells: human plasma (EDTA-K2)
T1 sequence (Q12884 24-760 limits assumed): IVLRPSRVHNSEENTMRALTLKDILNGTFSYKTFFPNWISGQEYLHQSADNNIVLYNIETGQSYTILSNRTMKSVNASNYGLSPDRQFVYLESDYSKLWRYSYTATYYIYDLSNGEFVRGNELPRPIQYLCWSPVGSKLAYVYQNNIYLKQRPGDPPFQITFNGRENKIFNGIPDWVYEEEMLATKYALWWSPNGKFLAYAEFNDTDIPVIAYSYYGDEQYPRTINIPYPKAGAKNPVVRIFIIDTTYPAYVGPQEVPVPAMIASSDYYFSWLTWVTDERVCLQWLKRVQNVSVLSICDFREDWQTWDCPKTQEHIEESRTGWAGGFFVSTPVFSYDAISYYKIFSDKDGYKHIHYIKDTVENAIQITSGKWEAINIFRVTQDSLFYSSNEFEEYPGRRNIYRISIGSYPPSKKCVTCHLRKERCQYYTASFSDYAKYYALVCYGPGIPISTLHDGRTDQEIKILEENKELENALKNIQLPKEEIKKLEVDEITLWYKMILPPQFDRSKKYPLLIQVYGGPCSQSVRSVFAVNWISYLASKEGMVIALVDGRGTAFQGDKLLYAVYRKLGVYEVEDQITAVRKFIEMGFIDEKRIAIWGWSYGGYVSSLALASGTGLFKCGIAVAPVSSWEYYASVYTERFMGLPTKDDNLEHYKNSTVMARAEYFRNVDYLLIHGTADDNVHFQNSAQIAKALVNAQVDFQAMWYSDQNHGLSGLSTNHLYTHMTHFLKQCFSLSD
Description: Ex vivo inhibition of circulating FAPα activity from human plasma. As to conditions: human plasma; PRXS-AMC substrate; read-out: FAPα activity in human plasma (PRXS-AMC) IC50. On the procedure:
Human blood was obtained from healthy young volunteers. Blood samples were collected in tubes coated with EDTA-K2 by venipuncture method, mixed gently, then kept on ice and centrifuged at 2,500×g for 15 minutes at 4° C. After plasma separation, samples were stored at −80° C. in aliquots of 300 μL. […] Exemplary compounds were allowed to interact with the enzyme for 15 minutes at 37° C. After pre-incubation, 50 μl of 200 μM PRXS-AMC substrate were added to the all mixtures. All reactions were carried out for 1 h at 37° C. protected from light. AMC release was detected measuring fluorescence at an excitation/emission wavelength of 380/460 nm using a Multifunction Microplate Reader. All measurements were carried out as single point.

Assay [2] addresses T2, recombinant human FAPα (rhFAPα) (Homo sapiens, UniProt Q12884).
T2 construct: purchased R&S system (so in the source)
T2 sequence (Q12884 1-760): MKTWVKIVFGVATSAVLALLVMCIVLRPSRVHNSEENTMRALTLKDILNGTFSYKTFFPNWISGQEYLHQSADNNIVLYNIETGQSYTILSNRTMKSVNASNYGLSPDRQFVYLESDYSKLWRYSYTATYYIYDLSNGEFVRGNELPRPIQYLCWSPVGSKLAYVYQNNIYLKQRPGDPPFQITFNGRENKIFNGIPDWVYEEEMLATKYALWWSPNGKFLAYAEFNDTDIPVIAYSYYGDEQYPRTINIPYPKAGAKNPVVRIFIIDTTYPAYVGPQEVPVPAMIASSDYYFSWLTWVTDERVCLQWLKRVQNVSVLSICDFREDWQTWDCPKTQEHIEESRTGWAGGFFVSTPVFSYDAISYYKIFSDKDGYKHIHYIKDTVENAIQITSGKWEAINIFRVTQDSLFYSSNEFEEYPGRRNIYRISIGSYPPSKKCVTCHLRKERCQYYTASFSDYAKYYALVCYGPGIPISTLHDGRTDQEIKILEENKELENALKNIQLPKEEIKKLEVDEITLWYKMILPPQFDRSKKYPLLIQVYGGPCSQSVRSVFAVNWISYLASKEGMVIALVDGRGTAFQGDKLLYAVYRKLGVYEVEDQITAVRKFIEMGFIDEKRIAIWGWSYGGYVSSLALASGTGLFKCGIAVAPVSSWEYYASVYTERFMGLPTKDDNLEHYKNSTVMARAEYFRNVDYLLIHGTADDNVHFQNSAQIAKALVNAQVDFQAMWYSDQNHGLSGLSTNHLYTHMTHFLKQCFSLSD
The assay can be described thus: FAPα enzymatic exopeptidase (dipeptidase) activity assay. As to conditions: for IC50: exopeptidase, read-out: rhFAPα (exo IC50); for inhibition at 1 µM: read-out: rhFAPα (% exo inh @ 1 μM).

The target of assay [3] is T3, recombinant human DPPIV (rhDPPIV) (Homo sapiens, UniProt P27487).
T3 construct: purchased R&S system (so in the source)
T3 sequence (P27487 whole entry): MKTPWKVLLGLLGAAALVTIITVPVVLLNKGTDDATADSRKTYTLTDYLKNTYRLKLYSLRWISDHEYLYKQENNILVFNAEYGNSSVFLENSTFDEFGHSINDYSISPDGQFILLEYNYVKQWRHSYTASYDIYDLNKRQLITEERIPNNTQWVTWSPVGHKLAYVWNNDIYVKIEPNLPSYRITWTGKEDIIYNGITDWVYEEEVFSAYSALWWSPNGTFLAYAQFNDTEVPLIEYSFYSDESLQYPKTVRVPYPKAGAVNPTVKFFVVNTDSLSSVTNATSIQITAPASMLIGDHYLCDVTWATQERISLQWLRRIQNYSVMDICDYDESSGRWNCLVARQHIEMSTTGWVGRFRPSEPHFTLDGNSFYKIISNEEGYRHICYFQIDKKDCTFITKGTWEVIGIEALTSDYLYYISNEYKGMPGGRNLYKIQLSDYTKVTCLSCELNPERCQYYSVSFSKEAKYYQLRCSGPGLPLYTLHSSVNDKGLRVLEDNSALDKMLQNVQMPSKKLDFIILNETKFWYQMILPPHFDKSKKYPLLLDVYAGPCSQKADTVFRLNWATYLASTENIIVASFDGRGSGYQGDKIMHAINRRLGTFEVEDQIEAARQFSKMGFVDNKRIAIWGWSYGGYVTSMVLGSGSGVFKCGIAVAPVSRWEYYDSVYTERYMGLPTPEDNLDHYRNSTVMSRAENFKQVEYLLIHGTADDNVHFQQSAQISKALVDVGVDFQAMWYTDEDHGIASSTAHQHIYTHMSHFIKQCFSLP
Description: DPPIV enzymatic activity assay. As to conditions: H-Gly-Pro-pNA substrate.

For assay [4], the target named is T4, mouse plasma DPPIV (Mus musculus, UniProt P28843).
T4 construct: from tissue; host or cells: mouse plasma (C57BL/6, EDTA)
T4 sequence (P28843 37-760 limits assumed): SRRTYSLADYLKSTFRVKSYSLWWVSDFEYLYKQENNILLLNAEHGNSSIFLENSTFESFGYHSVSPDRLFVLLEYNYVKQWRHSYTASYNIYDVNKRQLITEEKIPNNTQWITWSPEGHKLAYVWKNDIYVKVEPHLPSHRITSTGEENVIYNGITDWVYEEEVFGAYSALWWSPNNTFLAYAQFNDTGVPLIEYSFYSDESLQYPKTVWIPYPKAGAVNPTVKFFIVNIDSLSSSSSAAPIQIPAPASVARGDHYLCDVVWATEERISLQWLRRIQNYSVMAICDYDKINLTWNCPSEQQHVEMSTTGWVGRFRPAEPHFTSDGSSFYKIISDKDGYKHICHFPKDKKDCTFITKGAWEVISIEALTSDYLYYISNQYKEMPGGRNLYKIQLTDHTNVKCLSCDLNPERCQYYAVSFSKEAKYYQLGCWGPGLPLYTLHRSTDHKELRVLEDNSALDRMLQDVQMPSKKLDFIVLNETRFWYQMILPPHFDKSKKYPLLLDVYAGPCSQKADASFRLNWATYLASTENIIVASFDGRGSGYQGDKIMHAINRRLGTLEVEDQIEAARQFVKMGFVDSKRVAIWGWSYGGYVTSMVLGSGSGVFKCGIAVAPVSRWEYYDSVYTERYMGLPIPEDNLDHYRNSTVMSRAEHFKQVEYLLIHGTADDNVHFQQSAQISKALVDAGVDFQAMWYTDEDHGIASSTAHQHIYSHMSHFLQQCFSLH
The assay can be described thus: DPPIV enzymatic activity in mouse plasma. As to conditions: C57BL/6 mouse plasma; H-Gly-Pro-AMC substrate. In short, it runs like this: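 C57BL/6 mouse EDTA plasma, diluted in pH 7.5 Tris/NaCl/salicylic acid/EDTA buffer, preincubated 15 min at 37° C with compound or DMSO. H-Gly-Pro-AMC substrate added (200 μM solution, before mixing), reaction 1 h at 37° C; AMC fluorescence read at Ex 360/Em 460 nm, at least duplicate.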

Assay [5] concerns the target T5, recombinant human DPP9 (rhDPP9) (Homo sapiens, UniProt Q86TI2).
T5 construct: purchased R&S system (so in the source)
Description: DPP9 enzymatic activity assay. As to conditions: H-Gly-Pro-AMC substrate. The protocol:
7-Amino-4-Methylcoumarin (AMC) release was detected by measuring fluorescence at Ex/Em 380/460 nm using a Multifunction Microplate Reader (Synergy 4, Biotek). All measurements were carried out in triplicate.

Setting [6] is: 1 μM test compound, Z-Gly-Pro-AMC substrate.

Molecules are shown by their SMILES. Like-named read-outs stand apart in the source and are kept apart here. Some results are limits rather than exact numbers.

As usually defined, the IC50 is the concentration needed to halve the response being measured.

T5 sequence (Q86TI2 whole entry): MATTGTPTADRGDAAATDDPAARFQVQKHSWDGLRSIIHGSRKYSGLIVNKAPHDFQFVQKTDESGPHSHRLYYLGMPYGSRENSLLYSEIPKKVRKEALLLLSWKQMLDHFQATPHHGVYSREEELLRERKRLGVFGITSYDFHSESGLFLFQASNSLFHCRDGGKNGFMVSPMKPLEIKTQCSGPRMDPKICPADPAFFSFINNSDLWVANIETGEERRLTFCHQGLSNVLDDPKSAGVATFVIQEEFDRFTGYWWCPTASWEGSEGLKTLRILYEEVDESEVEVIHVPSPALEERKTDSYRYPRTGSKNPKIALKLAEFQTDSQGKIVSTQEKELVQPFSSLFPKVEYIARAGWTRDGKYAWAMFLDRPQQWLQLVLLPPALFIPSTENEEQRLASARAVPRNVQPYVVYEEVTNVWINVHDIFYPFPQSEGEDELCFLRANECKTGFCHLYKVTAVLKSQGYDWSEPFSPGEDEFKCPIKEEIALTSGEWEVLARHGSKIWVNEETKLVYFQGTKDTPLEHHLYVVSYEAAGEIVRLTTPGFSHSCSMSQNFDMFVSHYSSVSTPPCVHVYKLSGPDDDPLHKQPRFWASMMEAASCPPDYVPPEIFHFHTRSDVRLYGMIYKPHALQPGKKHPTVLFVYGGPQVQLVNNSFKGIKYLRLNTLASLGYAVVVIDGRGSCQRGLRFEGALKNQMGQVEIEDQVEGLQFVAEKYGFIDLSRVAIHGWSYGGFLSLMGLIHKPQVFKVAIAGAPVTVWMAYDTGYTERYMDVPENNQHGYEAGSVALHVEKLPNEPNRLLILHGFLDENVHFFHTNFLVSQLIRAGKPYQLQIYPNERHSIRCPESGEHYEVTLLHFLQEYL

With `N#C[C@@H]1CC(F)(F)CN1C(=O)CNC(=O)c1ccncc1C1=CCNCC1` [Compound 105, (S)—N-(2-(2-cyano-4,4-difluoropyrrolidin-1-yl)-2-oxoethyl)-1′,2′,3′,6′-tetrahydro-[3,4′-bipyridine]-4-carboxamide 2,2,2-trifluoroacetate], the IC50 in assay [1] is less than 1 µM; in assay [2] (Table 2, Z-Gly-Pro-AMC) it was less than 1 µM; in assay [2] (Table 3), less than 1 µM; in assay [3] it was greater than 10 µM; in assay [4] it was greater than 10 µM; in assay [5] it was greater than 10 µM. The inhibition at 1 µM in assay [2] is greater than 50%.
In the case of `N#C[C@@H]1CC(F)(F)CN1C(=O)CNC(=O)c1ccncc1-c1ccc(F)cc1` [Compound 52, (S)—N-(2-(2-cyano-4,4-difluoropyrrolidin-1-yl)-2-oxoethyl)-3-(4-fluorophenyl)isonicotinamide], the IC50 in assay [1] is less than 1 µM; in assay [2] (Table 2, Z-Gly-Pro-AMC) it was less than 1 µM; in assay [2] (Table 3) it was less than 1 µM; in assay [3] it was greater than 10 µM; in assay [4], greater than 10 µM; in assay [5], greater than 10 µM. Besides, the inhibition at 1 µM in assay [2] is greater than 50%.
Turning to `N#C[C@@H]1CC(F)(F)CN1C(=O)CNC(=O)c1ccncc1-c1cc(Cl)ccc1F` [Compound 54, (S)-3-(5-chloro-2-fluorophenyl)-N-(2-(2-cyano-4,4-difluoropyrrolidin-1-yl)-2-oxoethyl)isonicotinamide], the IC50 in assay [1] is less than 1 µM; in assay [2] (Table 2, Z-Gly-Pro-AMC), less than 1 µM; in assay [2] (Table 3), less than 1 µM; in assay [3] it was greater than 10 µM; in assay [4], greater than 10 µM; in assay [5], greater than 10 µM. In addition, the inhibition at 1 µM in assay [2] (setting [6]) was greater than 50%.
As for `N#C[C@@H]1CC(F)(F)CN1C(=O)CNC(=O)c1ccncc1N1CCOCC1` [Compound 88, N-[2-[(2S)-2-cyano-4,4-difluoro-pyrrolidin-1-yl]-2-oxo-ethyl]-3-morpholino-pyridine-4-carboxamide], the half-inhibitory concentration (IC50) in assay [1] is less than 1 µM; in assay [2] (Table 2, Z-Gly-Pro-AMC), less than 1 µM; in assay [2] (Table 3) it was less than 1 µM; in assay [3] it was 1 to 10 µM; in assay [4] it was 1 to 10 µM; in assay [5] it was 1 to 10 µM. Besides, in assay [2] (setting [6]), the inhibition at 1 µM was greater than 50%.
